Data as given in patent US20080009435A1, “Synthetic methods for aplidine and new antitumoral derivatives, methods of making and using them” (Pharma Mar, S.A., a Spain corporation, priority 2000, published 2008).
pIC50: −log10 of the molar value. Like-named read-outs stand apart in the source and are kept apart here. *1 amine or outer side, *2 acyl side, *3 side chain or, on linkers, in order; H or OH if unused. Where a SMILES comes first, the peptide text is derived from it. Bridges are numbered along the chain shown (N, C = ends). [ ]: non-standard residue; d: D form. The star is where a group is joined. ξ: configuration not given here. X1 = CC[C@H](C)[C@@H](N[*:1])[C@@H](O)CC(=O)O[C@H](C(=O)[C@H](C)C(=O)[*:2])C(C)C; X2 = CC[C@H](C)[C@@H](N[*:1])[C@@H](O)CC(=O)[*:2]; X4 = CC(C)[C@H](N[*:1])C(=O)[C@H](C)C(=O)[*:2]; X3 = C[C@H](O[Si](C)(C)C(C)(C)C)C(=O)*; NMeY = CN[C@@H](Cc1ccc(O)cc1)C(=O)O; X6 = O=C1NC2CSC(CCCCC(=O)*)C2N1; dNMeL = CN[C@H](CC(C)C)C(=O)O; Hiv = CC(C)[C@H](O)C(=O)O; Isobutyryl = CC(C)C(=O)*; Pyruvoyl = CC(=O)C(=O)*; Cbz = O=C(OCc1ccccc1)*; Hexanoyl = CCCCCC(=O)*; Boc = CC(C)(C)OC(=O)*; CO = O=C([*:1])[*:2]; Butyryl = CCCC(=O)*; NHPh = c1ccc(N*)cc1; ξP = O=C(O)C1CCCN1; Ms = CS(=O)(=O)*; NHBu = CCCCN*

How the values were obtained:
[1] = tested on: A549 human lung carcinoma; experiment: Cytotoxicity IC50 (after Berjeron et al)
Description: (§1) Methodology: after Berjeron et al, Biochem and Bioph Res. Comm., 1984, 121, 3, 848-854.
(§2) P388=Murine lymphoma. A549=human lung carcinoma. HT-29=human colon carcinoma. MEL-28=human melanoma.
(§3) A549=human lung carcinoma. HT-29=human colon carcinoma. MEL-28=human melanoma.

[2] = tested on: HT-29 human colon carcinoma; experiment: Cytotoxicity IC50 (after Berjeron et al)
Description: as §1, §2, §3

[3] = Homo sapiens, A549, read-out: Cytotoxicity of aplidine derivatives IC50 (Molar) A549
[4] = Homo sapiens, HT-29, read-out: Cytotoxicity of aplidine derivatives IC50 (Molar) HT29
[5] = read-out: Cytotoxicity of aplidine derivatives IC50 (Molar) A549, A549
[6] = read-out: Cytotoxicity of aplidine derivatives IC50 (Molar) HT29, HT29

CC[C@H](C)[C@H]1NC(=O)[C@@H](NC(=O)[C@@H](CC(C)C)NC)[C@@H](C)OC(=O)[C@H](Cc2ccc(OC)cc2)N(C)C(=O)[C@@H]2CCCN2C(=O)[C@H](CC(C)C)NC(=O)[C@@H](C)C(=O)[C@H](C(C)C)NC(=O)C[C@@H]1O [SNPL2, [Aip]^3-Didemnin A] (H-[dNMeL]T[X2][X4]LP[NMeY](Me); ester 2-C)
pIC50 [1, 3]: 7.97
pIC50 [2, 4]: 7.97

[Hiv]^3-[Z-Ala]^9-aplidine [9ZASHPL2]
pIC50 [1, 5]: 8.38
pIC50 [2, 6]: 8.38

CC[C@H](C)[C@H]1NC(=O)[C@@H](NC(=O)[C@@H](CC(C)C)N2CC[C@]3(CCCN3C(=O)OC(C)(C)C)C2=O)[C@@H](C)OC(=O)[C@H](Cc2ccc(OC)cc2)N(C)C(=O)[C@@H]2CCCN2C(=O)[C@H](CC(C)C)NC(=O)[C@@H](C)C(=O)[C@H](C(C)C)OC(=O)C[C@@H]1O [9SBSAPL1, [(5R)-1-(tert-buthoxycarbonyl)-7-[(1R)-1-carboxy-3-methylbutyl]-6-oxo-1,7-diazaspiro[4,4]nonane]^7-9-aplidine]
pIC50 [1, 3]: 8.06
pIC50 [2, 4]: 8.06

[NVa-Pro]^9-aplidine [9NVSAPL1]
pIC50 [1, 5]: 9.36
pIC50 [2, 6]: 9.36

[Gly]^8-[coumarin]^9-didemnin A [8G9CSAPL1]
pIC50 [1, 5]: 8.37
pIC50 [2, 6]: 8.37

CC[C@H](C)[C@H]1NC(=O)[C@@H](NC(=O)[C@@H](CC(C)C)N(C)C(=O)Nc2ccccc2)[C@@H](C)OC(=O)[C@H](Cc2ccc(OC)cc2)N(C)C(=O)[C@@H]2CCCN2C(=O)[C@H](CC(C)C)NC(=O)[C@@H](C)C(=O)[C@H](C(C)C)OC(=O)C[C@@H]1O [8PUSAPL1, [Phenylurea]^8-didemnin A] ({NHPh-CO}-[dNMeL]T[X1]LP[NMeY](Me); ester 2-C)
pIC50 [1, 3]: 10.03
pIC50 [2, 4]: 10.03

CCCCCC(=O)N(C)[C@H](CC(C)C)C(=O)N[C@@H]1C(=O)N[C@H]([C@@H](C)CC)[C@@H](O)CC(=O)O[C@@H](C(C)C)C(=O)N[C@@H](CC(C)C)C(=O)N2CCC[C@H]2C(=O)N(C)[C@@H](Cc2ccc(OC)cc2)C(=O)O[C@@H]1C [8HSHPL1, [Hiv]^3-[hexanoyl]^8-didemnin A] (Hexanoyl-[dNMeL]T[X2][Hiv]LP[NMeY](Me); ester 2-C)
pIC50 [1, 3]: 8.00
pIC50 [2, 4]: 8.00

CC[C@H](C)[C@H]1NC(=O)[C@@H](NC(=O)[C@@H](CC(C)C)N(C)C(=O)CCCCC2SCC3NC(=O)NC32)[C@@H](C)OC(=O)[C@H](Cc2ccc(OC)cc2)N(C)C(=O)[C@@H]2CCCN2C(=O)[C@H](CC(C)C)NC(=O)[C@@H](C)C(=O)[C@H](C(C)C)OC(=O)C[C@@H]1O (stereo partly shown) [8BISAPL1, [Biotin]^8-didemnin A] (X6-[dNMeL]T[X1]LP[NMeY](Me); ester 2-C)
pIC50 [1, 3]: 8.37
pIC50 [2, 4]: 8.37

CC[C@H](C)[C@H]1NC(=O)[C@@H](NC(=O)[C@@H](CC(C)C)N2CC[C@]3(CCCN3C(=O)C(C)=O)C2=O)[C@@H](C)OC(=O)[C@H](Cc2ccc(OC)cc2)N(C)C(=O)[C@@H]2CCCN2C(=O)[C@H](CC(C)C)NC(=O)[C@@H](C)C(=O)[C@H](C(C)C)OC(=O)C[C@@H]1O [9SPSAPL1, [(5R)-1-(pyruvyl)-7-[(1R)-1-carboxy-3-methylbutyl]-6-oxo-1,7-diazaspiro[4,4]nonane]^7-9-aplidine]
pIC50 [1, 3]: 8.07
pIC50 [2, 4]: 8.05

[Hiv]^3-[Pro]^8-didemnin A [8PSHPL1]
pIC50 [1, 5]: 9.00
pIC50 [2, 6]: 9.00

CCCC(=O)N(C)[C@H](CC(C)C)C(=O)N[C@@H]1C(=O)N[C@H]([C@@H](C)CC)[C@@H](O)CC(=O)O[C@@H](C(C)C)C(=O)N[C@@H](CC(C)C)C(=O)N2CCC[C@H]2C(=O)N(C)[C@@H](Cc2ccc(OC)cc2)C(=O)O[C@@H]1C [8BSHPL1, [Hiv]^3-[Butyryl]^8-didemnin A] (Butyryl-[dNMeL]T[X2][Hiv]LP[NMeY](Me); ester 2-C)
pIC50 [1, 3]: 8.98
pIC50 [2, 4]: 8.98

CC[C@H](C)[C@H]1NC(=O)[C@@H](NC(=O)[C@@H](CC(C)C)N2CC[C@]3(CCCN3C(=O)C(C)C)C2=O)[C@@H](C)OC(=O)[C@H](Cc2ccc(OC)cc2)N(C)C(=O)[C@@H]2CCCN2C(=O)[C@H](CC(C)C)NC(=O)[C@H](C(C)C)OC(=O)C[C@@H]1O [9SISHPL1, [Hiv]^3-[(5R)-1-(tert-buthoxycarbonyl)-7-[(1R)-1-carboxy-3-methylbutyl]-6-oxo-1,7-diazaspiro[4,4]nonane]^7-9-aplidine]
pIC50 [1, 3]: 7.03
pIC50 [2, 4]: 7.03

C=C(C)C(=O)N1CCC[C@]12CCN([C@H](CC(C)C)C(=O)N[C@@H]1C(=O)N[C@H]([C@@H](C)CC)[C@@H](O)CC(=O)O[C@@H](C(C)C)C(=O)N[C@@H](CC(C)C)C(=O)N3CCC[C@H]3C(=O)N(C)[C@@H](Cc3ccc(OC)cc3)C(=O)O[C@@H]1C)C2=O [9SASHPL1]
pIC50 [1, 3]: 7.03
pIC50 [2, 4]: 7.03

[Hiv]^3-[Ala]^9 aplidine [9ASHPL1]
pIC50 [1, 5]: 9.04
pIC50 [2, 6]: 9.04

CC[C@H](C)[C@H]1NC(=O)[C@@H](NC(=O)[C@@H](CC(C)C)N(C)S(C)(=O)=O)[C@@H](C)OC(=O)[C@H](Cc2ccc(OC)cc2)N(C)C(=O)[C@@H]2CCCN2C(=O)[C@H](CC(C)C)NC(=O)[C@@H](C)C(=O)[C@H](C(C)C)OC(=O)C[C@@H]1O [8MSAPL1, [Methylsulphonyl]^8-didemnin A] (Ms-[dNMeL]T[X1]LP[NMeY](Me); ester 2-C)
pIC50 [1, 3]: 9.01
pIC50 [2, 4]: 9.01

CCCCNC(=S)N(C)[C@H](CC(C)C)C(=O)N[C@@H]1C(=O)N[C@H]([C@@H](C)CC)[C@@H](O)CC(=O)O[C@@H](C(C)C)C(=O)[C@H](C)C(=O)N[C@@H](CC(C)C)C(=O)N2CCC[C@H]2C(=O)N(C)[C@@H](Cc2ccc(OC)cc2)C(=O)O[C@@H]1C [8BTSAPL1, [Butylthiourea]^8-didemnin A]
pIC50 [1, 3]: 9.02
pIC50 [2, 4]: 9.02

CC[C@H](C)[C@H]1NC(=O)[C@@H](NC(=O)[C@@H](CC(C)C)N(C)C(=O)[C@@H]2CCCN2C(=O)OC(C)(C)C)[C@@H](C)OC(=O)[C@H](Cc2ccc(OC)cc2)N(C)C(=O)[C@@H]2CCCN2C(=O)[C@H](CC(C)C)NC(=O)[C@H](C(C)C)OC(=O)C[C@@H]1O [8PSHPL2, [Hiv]^3-[Boc-Pro]^8-didemnin A] (Boc-P[dNMeL]T[X2][Hiv]LP[NMeY](Me); ester 3-C)
pIC50 [1, 3]: 9.04
pIC50 [2, 4]: 9.04

CC[C@H](C)[C@H]1NC(=O)[C@@H](NC(=O)[C@@H](CC(C)C)N(C)C(=O)C2CCCN2C(=O)[C@H](C)O[Si](C)(C)C(C)(C)C)[C@@H](C)OC(=O)[C@H](Cc2ccc(OC)cc2)N(C)C(=O)[C@@H]2CCCN2C(=O)[C@H](CC(C)C)NC(=O)[C@H](C(C)C)OC(=O)C[C@@H]1O (stereo partly drawn) [9LSHPL2(L), [Hiv]^3-[L-Lac(OTBDMS)]^9-aplidine] (X3-[ξP][dNMeL]T[X2][Hiv]LP[NMeY](Me); ester 3-C)
pIC50 [1, 3]: 8.07
pIC50 [2, 4]: 8.07

CC[C@H](C)[C@H]1NC(=O)[C@@H](NC(=O)[C@@H](CC(C)C)N(C)C(=O)C(C)C)[C@@H](C)OC(=O)[C@H](Cc2ccc(OC)cc2)N(C)C(=O)[C@@H]2CCCN2C(=O)[C@H](CC(C)C)NC(=O)[C@H](C(C)C)OC(=O)C[C@@H]1O [8ISHPL1, [Hiv]^3-[isobutyryl]^8-didemnin A] (Isobutyryl-[dNMeL]T[X2][Hiv]LP[NMeY](Me); ester 2-C)
pIC50 [1, 3]: 9.28
pIC50 [2, 4]: 9.28

CC[C@H](C)[C@H]1NC(=O)[C@@H](NC(=O)[C@@H](CC(C)C)N(C)C(=O)[C@@H]2CCCN2C(=O)C(C)=O)[C@@H](C)OC(=O)[C@H](Cc2ccc(OC)cc2)N(C)C(=O)[C@@H]2CCCN2C(=O)[C@H](CC(C)C)NC(=O)[C@@H](C)C(=O)[C@H](C(C)C)NC(=O)C[C@@H]1O [SNPL1, [Aip]^3-Aplidine] (Pyruvoyl-P[dNMeL]T[X2][X4]LP[NMeY](Me); ester 3-C)
pIC50 ([1]; Homo sapiens, A549, read-out: Cytotoxicity of [aa3]-aplidine Congeners IC50 (Molar) A549): 9.05
pIC50 ([2]; Homo sapiens, HT-29, read-out: Cytotoxicity of [aa3]-aplidine Congeners IC50 (Molar) HT29): 9.05

[Hiv]^3-[Z-NVa-Pro]^9-aplidine [9NVSHPL2]
pIC50 [1, 5]: 8.09
pIC50 [2, 6]: 8.09

[coumarin]^8-didemnin A [8CSAPL1]
pIC50 [1, 5]: 9.03
pIC50 [2, 6]: 9.03

CC[C@H](C)[C@H]1NC(=O)[C@@H](NC(=O)[C@@H](CC(C)C)N(C)C(=O)OCc2ccccc2)[C@@H](C)OC(=O)[C@H](Cc2ccc(OC)cc2)N(C)C(=O)[C@@H]2CCCN2C(=O)[C@H](CC(C)C)NC(=O)[C@@H](C)C(=O)[C@H](C(C)C)NC(=O)C[C@@H]1O [SNPL3, [Aip]^3 Z-Didemnin A] (Cbz-[dNMeL]T[X2][X4]LP[NMeY](Me); ester 2-C)
pIC50 [1, 3]: 10.03
pIC50 [2, 4]: 10.03

CC[C@H](C)[C@H]1NC(=O)[C@@H](NC(=O)[C@@H](CC(C)C)N(C)C(=O)[C@@H](NC(=O)OC(C)(C)C)C(C)C)[C@@H](C)OC(=O)[C@H](Cc2ccc(OC)cc2)N(C)C(=O)[C@@H]2CCCN2C(=O)[C@H](CC(C)C)NC(=O)[C@H](C(C)C)OC(=O)C[C@@H]1O [8VSHPL2, [Hiv]^3-[Boc-Val]^8-didemnin A] (Boc-V[dNMeL]T[X2][Hiv]LP[NMeY](Me); ester 3-C)
pIC50 [1, 3]: 8.04
pIC50 [2, 4]: 8.04

CCCCNC(=O)N(C)[C@H](CC(C)C)C(=O)N[C@@H]1C(=O)N[C@H]([C@@H](C)CC)[C@@H](O)CC(=O)O[C@@H](C(C)C)C(=O)[C@H](C)C(=O)N[C@@H](CC(C)C)C(=O)N2CCC[C@H]2C(=O)N(C)[C@@H](Cc2ccc(OC)cc2)C(=O)O[C@@H]1C [8BUSAPL1, [Butylurea]^8-didemnin A] ({NHBu-CO}-[dNMeL]T[X1]LP[NMeY](Me); ester 2-C)
pIC50 [1, 3]: 10.02
pIC50 [2, 4]: 10.02

CC[C@H](C)[C@H]1NC(=O)[C@@H](NC(=O)[C@@H](CC(C)C)N2CC[C@]3(CCCN3C(=O)C(C)=O)C2=O)[C@@H](C)OC(=O)[C@H](Cc2ccc(OC)cc2)N(C)C(=O)[C@@H]2CCCN2C(=O)[C@H](CC(C)C)NC(=O)[C@H](C(C)C)OC(=O)C[C@@H]1O [9SPSHPL1, [Hiv]^3-[(5R)-1-(pyruvyl)-7-[(1R)-1-carboxy-3-methylbutyl]-6-oxo-1,7-diazaspiro[4,4]nonane]^7-9-aplidine]
pIC50 [1, 3]: 7.03
pIC50 [2, 4]: 7.03
